Experiments:
Adult Merino wethers [1] = assay: Subcutaneous infusion in sheep: staple plucking force and defleecing result; type: in vivo; details: for Plucking Force day 7: day 7 (in day 9 column)
Text: One way of defining the extent of wool fibre weakening is by reference to the plucking force (Newtons/ktex, or N/ktex) required to remove the fleece. Methods for making this measurement are described by A. J. Gordon, Aust. J. of Exp. Agric. Anim. Husb. 20, 40-49, and Moore et al, Search. 12, 128-129.
Adult Merino wethers were housed under cover in individual pens or metabolic cages. The animals were offered a maintenance ration of 600 g of a pelleted mixture of 60% lucerne and 40% oats as one meal daily. Drinking water was provided ad lib.
(§1) Wethers were prepared for infusion experiments by the insertion of a polythene catheter below the skin so that the orifice lay near the centre of a 10×10 cm tattooed side on the right midside region of the body. The defleecing agent was dissolved in sterile saline solution and infused using a Harvard pump delivering a volume of 0.030 ml/min. Control animals were infused with saline solution alone.

[2] = Radioimmunoassay of plasma EGF correlated with plucking force; type: in vivo, sheep
Method: During the course of the above trails blood samples were taken from selected animals at approximately 1/2 hour intervals after the start of treatment. A correlation between radioimmunoassay determinations of plasma concentrations EGF and forces subsequently required to pluck wool from the skin of the sheep, pointed to the desirability of establishing a plasma concentration EGF of at least about 10 ng/ml for a period of at least about 15 hrs. in order to modify wool growth sufficiently for the fleece to be easily removed by hand.

new born mice = details: injected into new born mice; cited from earlier work
Adult Merino wethers [3] = assay: Wool harvested from tattooed midside area after subcutaneous infusion (wool growth); type: in vivo, sheep
Method: as §1
Recovery to preinfusion growth levels was observed 2 weeks later. At lower dose levels wool growth inhibition was noticeably less, the maximum recorded effect being about 80% inhibition of wool growth. This occurred about 4 weeks after infusion, but normal wool growth was attained about 2 weeks later.

[4] = sheep 26, 42.0 kg, EGF 1-45 dose total 4.9, 0.30 mg/kg^0.75, s.c. infusion 26.5 hr
[5] = sheep 27, EGF 1-45 dose total 1.0, s.c. infusion 28 hr
[6] = sheep 1, 36.3 kg, EGF dose total 27.5, 1.86 mg/kg^0.75, s.c. infusion 66 hr
[7] = sheep 3, 41.0 kg, EGF dose total 11.7, 0.74 mg/kg^0.75, s.c. infusion 28 hr
[8] = sheep 4, EGF dose total 11.7, s.c. infusion 28 hr
[9] = sheep 5, EGF dose total 10.0, s.c. infusion 28 hr
[10] = sheep 7, 49.0 kg, EGF dose total 5.8, 0.32 mg/kg^0.75, s.c. infusion 28 hr
[11] = sheep 8, 47.6 kg, EGF dose total 4.7, 0.26 mg/kg^0.75, s.c. infusion 28 hr
[12] = sheep 9, 47.4 kg, EGF dose total 4.7, 0.26 mg/kg^0.75, s.c. infusion 28 hr
[13] = sheep 10, 42.0 kg, EGF dose total 4.7, 0.28 mg/kg^0.75, s.c. infusion 26.5 hr
[14] = sheep 12, 45.4 kg, EGF dose total 2.9, 0.17 mg/kg^0.75, s.c. infusion 28 hr
[15] = sheep 13, 30.6 kg, EGF dose total 2.4, 0.19 mg/kg^0.75, s.c. infusion 25 hr
[16] = sheep 14, 29.4 kg, EGF dose total 2.0, 0.16 mg/kg^0.75, s.c. infusion 26.5 hr
[17] = sheep 16, EGF dose total 1.0, s.c. infusion 28 hr
[18] = sheep 17, 40.8 kg, EGF dose total 1.0, 0.06 mg/kg^0.75, s.c. infusion 28 hr
[19] = sheep 19, 31.8 kg, EGF dose total 5.0, 0.37 mg/kg^0.75, s.c. infusion 7 hr
[20] = sheep 20, 41.0 kg, EGF dose total 5.0, 0.31 mg/kg^0.75, s.c. infusion 7 hr
[21] = sheep 21, 41.9 kg, EGF dose total 5.0, 0.30 mg/kg^0.75, s.c. infusion 7 hr
[22] = sheep 22, 45.0 kg, EGF dose total 5.0, 0.29 mg/kg^0.75, s.c. infusion 7 hr
[23] = sheep 23, 50.6 kg, EGF dose total 5.0, 0.26 mg/kg^0.75, s.c. infusion 7 hr
[24] = sheep 24, 28.6 kg, EGF dose total 2.4, 0.20 mg/kg^0.75, s.c. infusion 48 hr
[25] = sheep 25, 28.4 kg, EGF dose total 2.4, 0.19 mg/kg^0.75, s.c. infusion 48 hr

Substance: EGF 1-45: derivative prepared by tryptic digestion of the intact EGF peptide (NSYPGCPSSYDGYCLNGGVCMHIESLDSYTCNCVIGYSGDRCQTR; not fully specified; Epidermal growth factor; UniProt P01132 977-1021, looked up, fragment)
- Infusion results compared with EGF (Adult Merino wethers [1]; s.c. infusion): closely similar results
- Plucking Force day 1 (Adult Merino wethers [1]; [4]): 5.6 N/ktex
- Plucking Force day 9 (Adult Merino wethers [1]; [4]): 0.3 N/ktex
- Result (Adult Merino wethers [1]; [4]): Fleece cast
- Plucking Force day 1 (Adult Merino wethers [1]; [5]): 4.1 N/ktex
- Plucking Force day 9 (Adult Merino wethers [1]; [5]): 3.1 N/ktex
- Result (Adult Merino wethers [1]; [5]): Weakened fibre

Substance: EGF: polypeptide of 53 amino acids prepared from the submaxillary glands of adult male mice
- Period of plasma concentration needed for fleece to be easily removed by hand ([2]; at plasma EGF of at least about 10 ng/ml): at least 15 hrs
- Plasma concentration EGF needed for fleece to be easily removed by hand ([2]; radioimmunoassay, correlated with plucking force): at least 10 ng/ml
- Effect on body growth rate and hair growth (new born mice): can inhibit body growth rate and hair growth
- Fleece removal (Adult Merino wethers [1]; s.c. infusion at rates as low as 0.16 mg EGF/kg^0.75): consistently allowed fleece to be easily removed
- Time to casting of the whole fleece (Adult Merino wethers [1]; s.c. infusion of amounts greater than about 0.25 mg EGF/kg^0.75): ≤ 7 days
- Fleece result (Adult Merino wethers [1]; s.c. infusions less than 0.25 mg EGF/kg^0.75): fleeces were retained but staples could easily be removed by hand
- Plucking Force day 1 (Adult Merino wethers [1]; [6]): 12.2 N/ktex
- Plucking Force day 9 (Adult Merino wethers [1]; [6]): 0.1 N/ktex
- Result (Adult Merino wethers [1]; [6]): Fleece cast
- Plucking Force day 1 (Adult Merino wethers [1]; [7]): 8.9 N/ktex
- Plucking Force day 9 (Adult Merino wethers [1]; [7]): 0 N/ktex
- Result (Adult Merino wethers [1]; [7]): Fleece cast
- Plucking Force day 1 (Adult Merino wethers [1]; [8]): 3.4 N/ktex
- Result (Adult Merino wethers [1]; [8]): Fleece cast
- Plucking Force day 7 (Adult Merino wethers [1]; [8]): 0.3 N/ktex
- Plucking Force day 1 (Adult Merino wethers [1]; [9]): 4.1 N/ktex
- Result (Adult Merino wethers [1]; [9]): Fleece cast
- Plucking Force day 7 (Adult Merino wethers [1]; [9]): 0.2 N/ktex
- Plucking Force day 1 (Adult Merino wethers [1]; [10]): 7.5 N/ktex
- Plucking Force day 9 (Adult Merino wethers [1]; [10]): 0.4 N/ktex
- Result (Adult Merino wethers [1]; [10]): Fleece cast
- Plucking Force day 1 (Adult Merino wethers [1]; [11]): 21.3 N/ktex
- Plucking Force day 9 (Adult Merino wethers [1]; [11]): 2.1 N/ktex
- Result (Adult Merino wethers [1]; [11]): Fleece cast
- Plucking Force day 1 (Adult Merino wethers [1]; [12]): 12.5 N/ktex
- Plucking Force day 9 (Adult Merino wethers [1]; [12]): 1.4 N/ktex
- Result (Adult Merino wethers [1]; [12]): Fleece cast
- Plucking Force day 1 (Adult Merino wethers [1]; [13]): 7.6 N/ktex
- Plucking Force day 9 (Adult Merino wethers [1]; [13]): 0.1 N/ktex
- Result (Adult Merino wethers [1]; [13]): Fleece cast
- Plucking Force day 1 (Adult Merino wethers [1]; [14]): 6.6 N/ktex
- Plucking Force day 9 (Adult Merino wethers [1]; [14]): 0.6 N/ktex
- Result (Adult Merino wethers [1]; [14]): Weakened fibre
- Plucking Force day 1 (Adult Merino wethers [1]; [15]): 11.3 N/ktex
- Plucking Force day 9 (Adult Merino wethers [1]; [15]): 2.1 N/ktex
- Result (Adult Merino wethers [1]; [15]): Weakened fibre
- Plucking Force day 1 (Adult Merino wethers [1]; [16]): 9.3 N/ktex
- Plucking Force day 9 (Adult Merino wethers [1]; [16]): 1.5 N/ktex
- Result (Adult Merino wethers [1]; [16]): Weakened fibre
- Plucking Force day 1 (Adult Merino wethers [1]; [17]): 5.5 N/ktex
- Plucking Force day 9 (Adult Merino wethers [1]; [17]): 3.6 N/ktex
- Result (Adult Merino wethers [1]; [17]): Weakened fibre
- Plucking Force day 1 (Adult Merino wethers [1]; [18]): 10.6 N/ktex
- Plucking Force day 9 (Adult Merino wethers [1]; [18]): 8.7 N/ktex
- Result (Adult Merino wethers [1]; [18]): No effect
- Plucking Force day 1 (Adult Merino wethers [1]; [19]): 7.0 N/ktex
- Plucking Force day 9 (Adult Merino wethers [1]; [19]): 0.4 N/ktex
- Result (Adult Merino wethers [1]; [19]): Fleece cast
- Plucking Force day 1 (Adult Merino wethers [1]; [20]): 17.9 N/ktex
- Plucking Force day 9 (Adult Merino wethers [1]; [20]): 1.0 N/ktex
- Result (Adult Merino wethers [1]; [20]): Fleece cast
- Plucking Force day 1 (Adult Merino wethers [1]; [21]): 11.4 N/ktex
- Plucking Force day 9 (Adult Merino wethers [1]; [21]): 0.8 N/ktex
- Result (Adult Merino wethers [1]; [21]): Fleece cast
- Plucking Force day 1 (Adult Merino wethers [1]; [22]): 9.0 N/ktex
- Plucking Force day 9 (Adult Merino wethers [1]; [22]): 1.0 N/ktex
- Result (Adult Merino wethers [1]; [22]): Fleece cast
- Plucking Force day 1 (Adult Merino wethers [1]; [23]): 12.7 N/ktex
- Plucking Force day 9 (Adult Merino wethers [1]; [23]): 2.8 N/ktex
- Result (Adult Merino wethers [1]; [23]): Fleece cast
- Plucking Force day 1 (Adult Merino wethers [1]; [24]): 14.8 N/ktex
- Plucking Force day 9 (Adult Merino wethers [1]; [24]): 3.2 N/ktex
- Result (Adult Merino wethers [1]; [24]): Weakened fibre
- Plucking Force day 1 (Adult Merino wethers [1]; [25]): 11.7 N/ktex
- Plucking Force day 9 (Adult Merino wethers [1]; [25]): 2.4 N/ktex
- Result (Adult Merino wethers [1]; [25]): Weakened fibre
- Wool production (Adult Merino wethers [3]; 0.74 and 1.86 mg EGF/kg^0.75, 2 weeks after the start of infusion): declined to near zero
- Time to recovery to preinfusion growth levels (Adult Merino wethers [3]; 0.74 and 1.86 mg EGF/kg^0.75, counted after the near-zero point (2 weeks after start)): 2 weeks
- Time of maximum wool growth inhibition after infusion (Adult Merino wethers [3]; lower dose levels): about 4 weeks
- Time to normal wool growth after maximum inhibition (Adult Merino wethers [3]; lower dose levels): about 2 weeks
- Maximum inhibition of wool growth (Adult Merino wethers [3]; lower dose levels (below 0.74 mg EGF/kg^0.75)): about 80%
